The text below walks through data of patent publication US6475434B1, “Composition and methods for preventing and removing biofilm embedded microorganisms from the surface of medical devices” (Baylor College of Medicine, priority 1998, dated 2002).

The term MBC denotes the lowest tested concentration that kills the bacteria rather than only halting them. High values mean less potent killing, low ones more potent killing.

For assay [1], the system named is Staphylococcus epidermidis. Nature of the assay: Minimal bactericidal concentration for the studied strain. The assay is classed as cell-based. The settings on record: studied strain of Staphylococcus epidermidis. Here is the method: Treatment phase: The lumens of the eight catheters were treated with biofilm penetrating composition solutions as described in Table I. The N-acetylcysteine and rifampin are used at a concentration equivalent to ten times the corresponding minimal bactericidal concentration of the N-aceylcysteine and the rifampin for the studied strain of Staphylococcus epidermidis (3.1 mg/ml and 0.02 μg/ml respectively).

The subject of assay [2] is Staphylococcus epidermidis. Nature of the assay: Flush cultures of biofilm-colonised catheter lumens after treatment solutions (Example 1). The assay is classed as cell-based. The protocol: Seeding phase: A dynamic flow sterile system that consisted of an infusion bad containing a bacterial suspension of Staphylococcus epidermidis (4×10^5 cfu/ml of saline) that infused at equal (about 41 ml/hour) into the lumens of eight ethylene oxide gas sterilized, 7-french, 20 cm polyurethane, single-lumen catheters for 12 hours at room temperature. The catheters were covered plastic sheath to ensure sterility of the surfaces. The bacterial suspension drained from the catheters into beakers.
Growth phase: The lumens of the four catheters were infused with sterile trypticase soy broth (“TSB”) at a rate of 10 ml/hour for 24 hours to allow for biofilm formation. The infused broth drained from the catheters into the beakers. […]
The clamps were removed from each end of Catheters 1, 3, 5, and 7 and the treatment solutions were drained. […] Hundred microliter aliquots of the collected portions of the flushed TSB and 10-fold serial dilutions were inoculated onto chocolate agar plates and colony counts were determined after incubation of agar plates at 37° C. for 48 hours.

Each structure is given as a SMILES string. Values after ≈ are worked out from the molar mass of the structure shown.

Regarding `CC(=O)N[C@@H](CS)C(=O)O` [N-acetylcysteine], the MBC in assay [1] came to 3100 µg/mL (≈ 19 mM). Besides, the “effect on biofilm and biofilm embedded microorganisms (in words)” value in assay [2] (Example 1 conclusion, 31 mg/ml in phosphate buffered saline) is “effectively penetrates and breaks-up the biofilm and kills biofilm embedded microorganisms”. For the same molecule, in assay [2] (assessed by flush cultures, at the concentration used), the “antimicrobial activity against biofilm embedded microorganisms compared with rifampin (in words)” value was “surpasses the antimicrobial activity of rifampin”.

The molecule `CO[C@H]1/C=C/O[C@@]2(C)Oc3c(C)c(O)c4c(O)c(c(/C=N/N5CCN(C)CC5)c(O)c4c3C2=O)NC(=O)/C(C)=C\C=C\[C@H](C)[C@H](O)[C@@H](C)[C@@H](O)[C@@H](C)[C@H](OC(C)=O)[C@@H]1C` [rifampin] yielded an MBC in assay [1] of 0.02 µg/mL (≈ 2.43e-05 mM).
